In US7642400B2, “Protein kinase C iota” (Mayo Foundation for Medical Education and Research, priority 2004, dated 2010):

Columns and labels:
[1] = target: T1, interaction of PKCι polypeptides with PAR6 polypeptides (Homo sapiens, UniProt P41743); test: Primary screen: FRET assay of PKCι113-YFP-N1 (PYN) and PAR6125-CFP-C1; conditions: FIG. 18; less binding as concentration increased
T1 construct: amino acids 1-113 or a full-length PKCι polypeptide; 6xHis; made in house
T1 sequence (P41743 10-122): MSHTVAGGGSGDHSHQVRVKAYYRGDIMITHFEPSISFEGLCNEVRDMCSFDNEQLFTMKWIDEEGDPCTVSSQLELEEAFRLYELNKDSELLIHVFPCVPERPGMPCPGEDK
Description: A primary screen was performed as follows to identify test compound having the potential to inhibit the interaction of PKCι polypeptides with PAR6 polypeptides. Bacterially expressed PKCι113-YFP-N1 (PYN) was isolated from the soluble fraction of bacterial lysates by affinity purification according to the manufacturer's protocol (B-PER 6×His Purification Kit; Pierce). The purified polypeptide was dialyzed against Tris buffer (50 mM Tris, pH 8.0; 135 mM NaCl; 10% glycerol; 0.002% EDTA) containing 2 M urea. PAR6125-CFP-C1 recombinant polypeptide was isolated from the inclusion body pellets of bacterial lysates using the B-PER reagent (Pierce) according to the manufacturer's protocol. […] Yields were measured by fluorescence in a SpectraMax Gemini microplate reader (Molecular Devices).
To perform the assay, PYN was diluted to 4000 relative fluorescent units/50 μl in Tris buffer plus 1 M urea, and PAR6125-CFP-C1 was diluted to 400 relative fluorescent units/50 μl Tris buffer plus 1 M urea. […] Fluorescence was measured in a SpectraMax Gemini plate reader. Cyan fluorescence was measured at excitation 395 nm, emission 475 nm, and cutoff of 455 nm. Yellow fluorescence was measured at excitation 395 nm, emission 529, and cutoff of 515=n. […]

A549 cells = test: Soft agar growth assay (anchorage-independent growth) of A549 cells; format: cell-based, human; conditions: A549 cells, FIG. 20
Description: (§1) Anchorage-independent growth was assayed by the ability of cells to form colonies in soft agar. The bottom agar consisted of growth medium containing 10% FBS and 0.75% agarose in 60-mm tissue culture dishes. Nine hundred cells were resuspended in growth medium containing 10% FBS and 0.75% agarose, and plated on top of the bottom agar. The cells were incubated at 37° C. in 5% CO2. Cell colonies were visualized and quantified under a dissecting microscope (Olympus) after 4-6 weeks in culture.
as §1, with “Soft Agar Growth Assays: Anchorage-independent growth” for “Anchorage-independent growth”, “and 0.75% agarose and plated” for “and 0.75% agarose, and plated”, “bottom agar. ATG was added at the indicated concentration to both bottom and top agar solutions. The cells” for “bottom agar. The cells”

Compound: OC[C@H]1O[C@H]([S-])[C@H](O)[C@@H](O)[C@@H]1O.[Au+] [Aurothioglucose]
- dose-response in the FRET assay: relative binding of PKCι and PAR6 polypeptides [1]: dose-dependent effect
- soft agar growth (A549 cells; 10 μM): decreased soft agar growth
- soft agar growth (A549 cells; 100 μM): decreased soft agar growth
